Where two headings read alike, the source gives them in different places.
Legend:
[1] = format: physicochemical
Method in brief: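 Preformed peptide fibrils (1 mg/mL) mixed with 50 µM ThT in PBS, 15 min at RT, fluorescence ex 440/em 488 nm versus PBS blank, triplicates. Zeta potential: peptides at 1 mg/mL in PBS pH 7.4, aged 1 d at RT, diluted in 1 mM KCl, Smoluchowski from electrophoretic mobility.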

[2] = Zeta-potential measurement; format: physicochemical; details: for Zeta-pot. / mV: zeta potential of peptide, Fig S15 source data
Method in brief: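 In this measurement, peptides aggregated for a day at RT in phosphate-buffered saline (pH 7.4, 1 mg/mL) are diluted into 1 mM potassium chloride, and the electrophoretic mobility is translated into zeta potential by Smoluchowski's relation.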

[3] = ThT fluorescence relative to blank (42.1851851851852 a.u.)
[4] = relative to blank 42.1851851851852 a.u.
[5] = category derived from the zeta potential
[6] = ThT fluorescence relative to blank, blank = 42.1851851851852

Row | Substance | Tht rel to blank (42.1851851851852) [1, 3] | Tht category (> 1.5 to blank = +) ([1]; category 1/0) | Tht rel to blank (42.1851851851852) [1, 4] | Zeta category ( +1 = if > 4 mV;-1 = if < -4 mV; 0 = -4mV to 4 mV) [2] | Zeta category ( +1 = if > 4 mV;-1 = if < -4 mV; 0 = -4mV to 4 mV) ([2]; category from zeta potential) | Zeta Pot. / mV ([2]; mean, Std Zeta in next column) | Zeta Pot. / mV ([2]; mean, Std in separate column) | Zeta-pot. / mV [2] | Zeta category ( +1 = if > 4 mV;-1 = if < -4 mV; 0 = -4mV to 4 mV) [2, 5] | Tht rel to blank (42.1851851851852) [1, 6] | Zeta Pot. / mV [2] | Tht category (> 1.5 to blank = +) ([1]; FigS26) | Zeta category ( +1 = if > 4 mV;-1 = if < -4 mV; 0 = -4mV to 4 mV) ([2]; FigS26)
1 | QCKFKFQF [CK9] | 2.014 | 1 (ThT. Cat is 1, if Rel. ThT >2) | 2.014 | 1 (+1 = if > 4 mV) | 1 (+1 = if > 4 mV) | 12.2 mV | 12.2 mV | 12.2 mV | – | – | – | – | –
2 | CKYKYQY [KB2] | – | 1 (ThT. Cat is 1, if Rel. ThT >2) | 3.119 | 0 (0 = -4mV to 4 mV) | – | 1.49 mV | – | 1.49 mV | – | – | – | – | –
3 | QCKIKIQINM [CK2] | 2.548 | 1 (ThT. Cat is 1, if Rel. ThT >2) | 2.548 | 1 (+1 = if > 4 mV) | 1 (+1 = if > 4 mV) | 11.37 mV | 11.37 mV | 11.37 mV | – | – | – | – | –
4 | CKFKFQFW [TM72] | 1.802 | – | – | – | – | 15.2 mV | – | 15.2 mV | 1 (+1 = if > 4 mV) | – | – | – | –
5 | QCKIKQII [CK6] | 2.961 | 1 (ThT. Cat is 1, if Rel. ThT >2) | 2.961 | 1 (+1 = if > 4 mV) | 1 (+1 = if > 4 mV) | 11 mV | 11 mV | 11 mV | – | 2.961 | 11 mV | – | –
6 | CKFKFQFNM [BL3] | 2.383 | 1 (ThT. Cat is 1, if Rel. ThT >2) | 2.383 | 1 (+1 = if > 4 mV) | 1 (+1 = if > 4 mV) | 15.13 mV | 15.13 mV | 15.13 mV | – | – | – | – | –
7 | RGDCKIKIQINM [TM45] | 1.835 | 0 (ThT-inactive (N-Fold <2)) | 1.835 | 1 (+1 = if > 4 mV) | 1 (+1 = if > 4 mV) | 11.3 mV | 11.3 mV | 11.3 mV | – | – | – | 0 (Tht category (> 1.5 to blank = +)) | –
8 | KFKFQFW [TM71] | 3.529 | 1 (ThT. Cat is 1, if Rel. ThT >2) | 3.529 | 1 (+1 = if > 4 mV) | – | 6.49 mV | 6.49 mV | 6.49 mV | 1 (+1 = if > 4 mV) | 3.529 | 6.49 mV | – | –
9 | CKIKIQI [MG3b] | 3.939 | 1 (ThT. Cat is 1, if Rel. ThT >2) | 3.939 | 1 (+1 = if > 4 mV) | 1 (+1 = if > 4 mV) | 12.8 mV | 12.8 mV | 12.8 mV | 1 (+1 = if > 4 mV) | – | – | – | 1 (+1 = if > 4 mV)
10 | CKIKIQINMWQ [MG1] | 4.566 | 1 (ThT. Cat is 1, if Rel. ThT >2) | 4.566 | 1 (+1 = if > 4 mV) | 1 (+1 = if > 4 mV) | 13.87 mV | 13.87 mV | 13.87 mV | – | – | – | – | –
11 | KFKFQF [JJA6] | 1.156 | 0 (ThT-inactive (N-Fold <2)) | 1.156 | -1 (-1 = if < -4 mV) | -1 (-1 = if < -4 mV) | -11.03 mV | -11.03 mV | -11.03 mV | – | – | – | – | –
12 | CKFKQFFNMWQ [CK13] | 27.7 | 1 (ThT. Cat is 1, if Rel. ThT >2) | 27.7 | 1 (+1 = if > 4 mV) | 1 (+1 = if > 4 mV) | 8.563 mV | 8.563 mV | 8.563 mV | – | 27.7 | 8.563 mV | – | –
13 | QCKAKAQANMWQ [CK22] | 1.496 | 0 (ThT-inactive (N-Fold <2)) | 1.496 | -1 (-1 = if < -4 mV) | -1 (-1 = if < -4 mV) | -8.05 mV | -8.05 mV | -8.05 mV | – | – | – | – | –
14 | KLKLQLL [TG4 / (KM2)] | 0.8415 | 0 (ThT-inactive (N-Fold <2)) | – | -1 (-1 = if < -4 mV) | – | -4.93 mV | – | -4.93 mV | -1 (-1 = if < -4 mV) | 0.8415 | -4.93 mV | – | –
15 | RGDCKFKFQF [TM64/ CN15] | 6.788 | 1 (ThT. Cat is 1, if Rel. ThT >2) | – | 1 (+1 = if > 4 mV) | 1 (+1 = if > 4 mV) | 13.87 mV | – | 13.87 mV | – | 6.788 | 13.87 mV | – | –
16 | RGDKIKIQI [MG14] | 5.578 | 1 (ThT. Cat is 1, if Rel. ThT >2) | 5.578 | 0 (0 = -4mV to 4 mV) | 0 (0 = -4mV to 4 mV) | -0.899 mV | -0.899 mV | -0.899 mV | – | – | – | 1 (Tht category (> 1.5 to blank = +)) | –
17 | KIKIQI [JJA4] | 1.097 | 0 (ThT-inactive (N-Fold <2)) | 1.097 | -1 (-1 = if < -4 mV) | -1 (-1 = if < -4 mV) | -5.63 mV | -5.63 mV | -5.63 mV | – | – | – | – | –

Source: PMC10447463, “Data-mining unveils structure–property–activity correlation of viral infectivity enhancing self-assembling peptides” (Nature Communications, 2023)
